We go through 4 compounds from US12529022B2, “Human organ-on-chip models for predictive screening” (The Trustees of Columbia University in the City of New York, priority 2018, dated 2026).

The subject of series [1] is cardiac compartment. In words: Doxorubicin study: cardiac compartment function. Format: cell-based, human. To be noted: 30 μM, 72 hours.
The subject of series [2] is skin tissues. Put plainly: Doxorubicin study: skin barrier transport and TEER. Format: cell-based, human. To be noted: 30 μM, 72 hours, isolated and integrated comparable. As to the method:
(§1) Common tissue responses were measured for each tissue individually, 72 hours after their assembly into the integrated platform and exposure to 30 μM concentration of doxorubicin introduced into the circulatory perfusion. FIG. 61 illustrates the Doxorubicin (Dox) drug study design including four conditions tests (integrated control, integrated Dox, isolated control, isolated Dox).

For series [3], the system named is all tissue types. In words: Doxorubicin study in integrated multi-tissue platform: common toxicity readouts. Format: cell-based, human. To be noted: 72 hours after 30 μM dose.
The test system of series [4] is Bone tissues. Put plainly: Doxorubicin study: bone remodeling and histology. To be noted: 30 μM, 72 hours. As to the method: as §1
The test system of series [5] is Liver tissues. In words: Doxorubicin study: liver functionality. Format: cell-based, human. To be noted: 30 μM, 72 hours, only in the integrated experimental groups. As to the method:
as §1

Series [6] deals with human cardiac OOC.
Description: (§2) The pillars subjected the hydrogel to mechanical loading designed to mimic that in the native heart. The hydrogel compaction caused passive tension in the tissues as they're stretched and aligned between the pillars. Synchronous contractions forced the tissues to work against the pillars. […] Cardiac model development: Cardiac tissues were formed by cell encapsulation in fibrin hydrogel. Human iPS cell-derived cardiomyocytes at day 16 of differentiation were combined with normal human dermal fibroblasts (NHDF; Lonza) at a ratio of 75% hiPSC-CMs and 25% NHDF, for a total of 1 million cells per tissue. The hydrogel was formed by mixing 33 mg/mL of fibrinogen from human plasma (Sigma-Aldrich) with 25 U/mL of thrombin from human plasma (Sigma-Aldrich), on a 84:16 ratio. The hydrogel mixed with the cells was dispensed into each well of the tissues formation reservoir and allowed to polymerize at 37° C. for 15 min before adding RPMI Medium 1640 supplemented with B-27™ containing 0.2 mg/ml aprotinin (Sigma-Aldrich). Subsequently, medium was changed every other day supplemented with 0.2 mg/ml aprotinin for the first 7 days. After 7 days, tissues were used in experiments. […] Contractility videos: Tissue contractility was measured by tracking the change in tissue area as a function of time. […] Absolute differences in cell area from the baseline frame were then calculated to create a time course of cell area dynamics as a function of time. The resulting time courses were analysed using a native MATLAB (MATHWorks) automated peak finding algorithm to determine locations of maximum cell contraction indicated by the locations of local maxima in the time courses. Beat period lengths were determined from the length of time between the pairs of local maxima. Beat frequencies were determined by inverting beat periods; relaxation times were measured from the length of time required for the tissue to relax from the peak contraction amplitude of the local maxima to the calculated relaxation amplitude.
Series [7] relates to human cardiac OOC. Put plainly: cells. To be noted: read-out: EC50 of increase in beat frequency.
Description: as §2

Where a name gives a salt, the structure may show the parent alone.

For the compound `COc1cccc2c1C(=O)c1c(O)c3c(c(O)c1C2=O)C[C@@](O)(C(=O)CO)C[C@@H]3O[C@H]1C[C@H](N)[C@H](O)[C@H](C)O1` [doxorubicin, doxorubicin hydrochloride], in series [1], the “contractile and conductive behavior” value was “decreased contractile and conductive behavior”; the release of troponin entry is reported as “increased release of troponin”. Further, in series [2], the “electrical resistance (TEER) of skin” value was “electrical resistance decreased”. In series [3], the cell viability result was “significant decreases”, the glucose consumption result was “significant decreases” and the mitochondrial activity result is “significant decreases”. Besides, in series [4], the “TRAP activity (bone remodeling)” value was “stable TRAP responses”. In series [5], the albumin production result is “decreased albumin” and the urea production entry was “unaffected urea production”.
Turning to `Cn1c(=O)c2c(ncn2C)n(C)c1=O` [caffeine], the beat frequency entry in series [6] (caffeine 50 mM) is on record as “increase in beat frequency”.
In the case of `CC(C)NCC(O)c1ccc(O)c(O)c1` (stereo not drawn) [isoproterenol, isoproterenol hydrochloride], in series [7], the EC50 was determined as 30 nM.
For the compound `CCCCc1oc2ccccc2c1C(=O)c1cc(I)c(OCCN(CC)CC)c(I)c1` [amiodarone, amiodarone hydrochloride], the beating frequency entry in series [6] (amiodarone 2.42 μM (FIG. 50 legend prints 2.42 M), over 48 hours) was “beating frequency decreased”.

What is called EC50 is the concentration at which the effect is half-maximal.
